Converted amounts (≈) assume the structure as drawn. The source made the active and inactive calls. No cut-off for these calls is given here.
How the values were obtained:
Aphis fabae [1] = assay: Insecticidal activity against third-instar nymph of Aphis fabae (black bean aphids) assessed as mortality after 72 hr by spray method; type: functional; details: for LC50: Aphis fabae, 72 h
Mythimna separata [2] = assay: Insecticidal activity against third-instar larvae of Mythimna separata (Oriental armyworm) assessed as mortality at 100 mg/L after 72 hr by spray method; type: functional, organism-based
Mythimna separata [3] = assay: Insecticidal activity against third-instar larvae of Mythimna separata (Oriental armyworm) assessed as mortality after 72 hr by spray method; type: functional
Mythimna separata [4] = assay: Insecticidal activity against third-instar larvae of Mythimna separata (Oriental armyworm) assessed as mortality at 25 mg/L after 72 hr by spray method; type: functional, organism-based
Tetranychus cinnabarinus [5] = assay: Acaricidal activity against adult Tetranychus cinnabarinus (carmine spider mite) assessed as mortality after 72 hr by immersion method; type: functional
Aphis fabae [6] = assay: Insecticidal activity against third-instar nymph of Aphis fabae (black bean aphids) assessed as mortality at 4 mg/L after 72 hr by spray method; type: functional
Tetranychus cinnabarinus [7] = assay: Acaricidal activity against adult Tetranychus cinnabarinus (carmine spider mite) assessed as mortality at 6.25 mg/L after 72 hr by immersion method; type: functional
Tetranychus cinnabarinus [8] = assay: Ovolarvicidal activity against […] Tetranychus cinnabarinus (carmine spider mite) assessed as reduction in hatched eggs measured 6 days after hatching by immersion method; type: functional; details: for LC50: Tetranychus cinnabarinus, 144 h
Mythimna separata [9] = assay: Insecticidal activity against third-instar larvae of Mythimna separata (Oriental armyworm) assessed as mortality at 1000 mg/L after 72 hr by spray method; type: functional
Tetranychus cinnabarinus [10] = assay: Acaricidal activity against adult Tetranychus cinnabarinus (carmine spider mite) assessed as mortality at 600 mg/L after 72 hr by immersion method; type: functional

Compound | LC50 (Aphis fabae [1]) [µg/mL] | LC50 (Mythimna separata [3]) [µg/mL] | LC50 (Tetranychus cinnabarinus [5]) [µg/mL] | further results
Cc1cc(C)c(C2=C(C(=O)c3ccccc3Cl)C3(CCCC3)OC2=O)c(C)c1 | 5 (≈ 12.7 µM) | 26 (≈ 65.8 µM) | > 600 | Activity (Mythimna separata [2]): Active; Activity (Mythimna separata [4]): inactive
Cc1cc(C)c(C2=C(C(=O)C(c3ccc(Cl)cc3)C(C)C)C3(CCCC3)OC2=O)c(C)c1 (centres undefined) | 101 (≈ 224 µM) | 401 (≈ 889 µM) | 101 (≈ 224 µM) | –
Cc1cc(C)c(C2=C(C(=O)/C=C/c3ccccc3)C3(CCCC3)OC2=O)c(C)c1 | 5 (≈ 12.9 µM) | 26 (≈ 67.3 µM) | 101 (≈ 261 µM) | Activity (Mythimna separata [2]): Active; Activity (Mythimna separata [4]): inactive
CCOC1=C(c2c(C)cc(C)cc2C)C(=O)OC12CCCC2 | > 500 | > 1000 | > 600 | –
Cc1cc(C)c(C2=C(C(=O)CC(C)(C)C)C3(CCCC3)OC2=O)c(C)c1 | 5 (≈ 14.1 µM) | 101 (≈ 285 µM) | 26 (≈ 73.3 µM) | –
CCC(C)(C)C(=O)OC1=C(c2ccc(Cl)cc2Cl)C(=O)OC12CCCCC2 [SPIRODICLOFEN] | – | – | – | mortality at 4 µg/mL (Aphis fabae [6]): 0%
C=CC(=O)C1=C(c2c(C)cc(C)cc2C)C(=O)OC12CCCC2 | 5 (≈ 16.1 µM) | 26 (≈ 83.8 µM) | 101 (≈ 325 µM) | –
CCC(=O)C1=C(c2c(C)cc(C)cc2C)C(=O)OC12CCCC2 | 21 (≈ 67.2 µM) | 101 (≈ 323 µM) | 6.26 (≈ 20 µM) | –
Cc1ccc(C(=O)C2=C(c3c(C)cc(C)cc3C)C(=O)OC23CCCC3)cc1 | > 500 | > 1000 | > 600 | –
COc1ccc(C(=O)C2=C(c3c(C)cc(C)cc3C)C(=O)OC23CCCC3)cc1 | 21 (≈ 53.8 µM) | 26 (≈ 66.6 µM) | 1 (≈ 2.56 µM) | mortality at 6.25 µg/mL (Tetranychus cinnabarinus [7]): 55.2%
Cc1cc(C)c(C2=C(OC(=O)CC(C)(C)C)C3(CCCC3)OC2=O)c(C)c1 [SPIROMESIFEN] | 5 (≈ 13.5 µM) | 101 (≈ 273 µM) | 6.26 (≈ 16.9 µM) | LC90 (Tetranychus cinnabarinus [8]): 31.07 µg/mL (≈ 83.9 µM); LC50 (Tetranychus cinnabarinus [8]): 4.32 µg/mL (≈ 11.7 µM); mortality at 4 µg/mL (Aphis fabae [6]): 10.9%
CCCCCC(=O)C1=C(c2c(C)cc(C)cc2C)C(=O)OC12CCCC2 | 1 (≈ 2.82 µM) | 26 (≈ 73.3 µM) | 6.26 (≈ 17.7 µM) | LC90 (Aphis fabae [1]): 21.77 µg/mL (≈ 61.4 µM); Activity (Mythimna separata [2]): Active; LC90 (Tetranychus cinnabarinus [8]): 56.08 µg/mL (≈ 158 µM); LC50 (Tetranychus cinnabarinus [8]): 11.8 µg/mL (≈ 33.3 µM); Activity (Mythimna separata [4]): inactive; mortality at 4 µg/mL (Aphis fabae [6]): 95.6%; mortality at 1000 µg/mL (Mythimna separata [9]): 100%
Cc1cc(C)c(C2=C(C(=O)C3C(C=C(Cl)Cl)C3(C)C)C3(CCCC3)OC2=O)c(C)c1 (centres undefined) | 100 (≈ 224 µM) | 401 (≈ 896 µM) | > 600 | –
CCOC(=O)OC1=C(c2cc(C)ccc2C)C(=O)N[C@]12CC[C@@H](OC)CC2 [SPIROTETRAMAT] | 5.06 (≈ 13.5 µM) | – | – | LC90 (Aphis fabae [1]): 13.56 µg/mL (≈ 36.3 µM); mortality at 4 µg/mL (Aphis fabae [6]): 37.9%
COC1=C(c2c(C)cc(C)cc2C)C(=O)OC12CCCC2 | > 500 | > 1000 | > 600 | –
CCC(C)(C)C(=O)C1=C(c2c(C)cc(C)cc2C)C(=O)OC12CCCC2 | 21 (≈ 59.2 µM) | 101 (≈ 285 µM) | 6.26 (≈ 17.7 µM) | –
Cc1cc(C)c(C2=C(C(=O)c3ccc(F)cc3)C3(CCCC3)OC2=O)c(C)c1 | 21 (≈ 55.5 µM) | 101 (≈ 267 µM) | 101 (≈ 267 µM) | –
CO/N=C(/C(=O)C1=C(c2c(C)cc(C)cc2C)C(=O)OC12CCCC2)c1ccccc1 | 21 (≈ 50.3 µM) | 26 (≈ 62.3 µM) | 26 (≈ 62.3 µM) | –
Cc1cc(C)c(C2=C(C(=O)c3ccccc3C)C3(CCCC3)OC2=O)c(C)c1 | 5 (≈ 13.4 µM) | 26 (≈ 69.4 µM) | 101 (≈ 270 µM) | –
CCc1c(C)cc(OC2=C(c3c(C)cc(C)cc3C)C(=O)OC23CCCC3)cc1C | > 500 | > 1000 | > 600 | –
CCCCC(=O)C1=C(c2c(C)cc(C)cc2C)C(=O)OC12CCCC2 | 1 (≈ 2.94 µM) | 26 (≈ 76.4 µM) | 6.26 (≈ 18.4 µM) | mortality at 4 µg/mL (Aphis fabae [6]): 55.5%; mortality at 1000 µg/mL (Mythimna separata [9]): 100%
C/C=C/C(=O)C1=C(c2c(C)cc(C)cc2C)C(=O)OC12CCCC2 | 21 (≈ 64.7 µM) | 101 (≈ 311 µM) | 6.26 (≈ 19.3 µM) | –
CCCCCCC(=O)C1=C(c2c(C)cc(C)cc2C)C(=O)OC12CCCC2 | 5 (≈ 13.6 µM) | 101 (≈ 274 µM) | 26 (≈ 70.6 µM) | –
CCCC(=O)C1=C(c2c(C)cc(C)cc2C)C(=O)OC12CCCC2 | 5 (≈ 15.3 µM) | 26 (≈ 79.6 µM) | 6.26 (≈ 19.2 µM) | mortality at 1000 µg/mL (Mythimna separata [9]): 100%; mortality at 600 µg/mL (Tetranychus cinnabarinus [10]): 96.6%
